Source: patent US8350027B2, “Dual-acting pyrazole antihypertensive agents” (Theravance, Inc., priority 2009, dated 2013)

Experiments:
[1] = molecular target: T1, human AT1 receptor (Homo sapiens, UniProt P30556); assay: AT1 radioligand binding assay (displacement of [Eu]AngII); details: membranes of CHO-K1 cells expressing cloned human AT1 receptor; values given as lower bounds; read-out: AT1 pKi (converted)
T1 construct: expressed in transfected cells; host or cells: CHO-K1
T1 sequence (P30556 1-359): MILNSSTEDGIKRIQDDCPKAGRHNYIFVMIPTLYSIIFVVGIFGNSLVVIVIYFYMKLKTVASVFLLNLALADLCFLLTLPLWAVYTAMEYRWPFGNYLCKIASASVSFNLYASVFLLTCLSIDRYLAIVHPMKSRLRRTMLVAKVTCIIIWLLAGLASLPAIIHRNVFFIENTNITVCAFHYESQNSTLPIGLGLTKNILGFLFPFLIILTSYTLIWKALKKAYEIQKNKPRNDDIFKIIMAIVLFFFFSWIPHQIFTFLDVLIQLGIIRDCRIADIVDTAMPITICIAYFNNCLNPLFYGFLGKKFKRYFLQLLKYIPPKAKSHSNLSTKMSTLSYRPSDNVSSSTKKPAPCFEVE
How it was run: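 Membranes from CHO-K1 cells stably expressing cloned human AT1, 0.2 μg protein, in 50 mM Tris/HCl pH 7.5, 5 mM MgCl2, 0.025% BSA. Compounds displaced [Eu]AngII over 120 min in the dark at room temperature or 37° C; filter-bound TRF read. Nonspecific binding with 10 μM angiotensin II; IC50 converted to Ki via Cheng-Prusoff, reported as pKi.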

[2] = molecular target: T2, NEP enzyme (Homo sapiens, UniProt P08473); assay: NEP enzyme inhibition assay (fluorogenic peptide substrate); format: biochemical; details: values given as lower bounds; * = prodrugs, may not exhibit NEP activity in an in vitro assay; read-out: NEP pIC50 (converted)
T2 construct: purchased R&D Systems, Minneapolis, Minn; 1182-ZN
T2 sequence (P08473 52-750 limits assumed): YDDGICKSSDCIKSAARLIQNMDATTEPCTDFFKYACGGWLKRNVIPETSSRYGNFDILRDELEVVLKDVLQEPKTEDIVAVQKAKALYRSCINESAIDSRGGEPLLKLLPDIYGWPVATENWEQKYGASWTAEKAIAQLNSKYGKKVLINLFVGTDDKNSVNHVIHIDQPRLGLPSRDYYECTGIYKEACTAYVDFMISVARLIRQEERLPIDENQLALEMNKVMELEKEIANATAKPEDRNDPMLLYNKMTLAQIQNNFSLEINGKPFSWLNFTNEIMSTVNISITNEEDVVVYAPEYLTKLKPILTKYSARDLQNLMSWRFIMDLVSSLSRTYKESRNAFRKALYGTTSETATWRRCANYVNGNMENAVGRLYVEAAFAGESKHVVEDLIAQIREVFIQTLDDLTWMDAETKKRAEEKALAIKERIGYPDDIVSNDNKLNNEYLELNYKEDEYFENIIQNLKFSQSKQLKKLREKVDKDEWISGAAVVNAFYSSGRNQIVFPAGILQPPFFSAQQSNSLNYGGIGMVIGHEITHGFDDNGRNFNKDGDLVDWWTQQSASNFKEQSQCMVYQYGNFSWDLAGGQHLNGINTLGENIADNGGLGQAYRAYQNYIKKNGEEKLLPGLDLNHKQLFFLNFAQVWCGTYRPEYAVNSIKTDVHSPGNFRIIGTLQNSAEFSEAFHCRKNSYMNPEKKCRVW
How it was run: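 Recombinant human NEP was run with Mca-BK2 (10 μM) at room temperature in Tris buffer with 1 μM Zn. Compounds (10 μM–20 pM, 12 points) were pre-equilibrated 10 min, then reacted 20 min and acid-stopped. Fluorescence ex 320/em 405 nm, one-site competition fit gives pIC50. Thiol compounds may be pre-treated with 400 μM TCEP.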

| Ki [1] [nM] | IC50 [2] [nM] | SMILES |
| --- | --- | --- |
| ≤ 10 | ≤ 10000 | CCCc1cc(C(=O)N[C@@H](CC(=O)O)Cc2ccccc2)nn1Cc1ccc(-c2ccccc2S(=O)(=O)NC(C)=O)cc1 [Example 6-28, (R)-3-{[1-(2′-Acetylsulfamoylbiphenyl-4-ylmethyl)-5-propyl-1H-pyrazole-3-carbonyl]amino}-4-phenylbutyric acid] |
| ≤ 10 | ≤ 100 | CCCc1cc(C(=O)N[C@@H](CC(=O)O)Cc2cccc(F)c2)nn1Cc1ccc(-c2ccccc2-c2nnn[nH]2)nc1 [Example 14-12, (R)-4-(3-Fluorophenyl)-3-[(5-propyl-1-{6-[2-(1H-tetrazol-5-yl)phenyl]pyridin-3-ylmethyl}-1H-pyrazole-3-carbonyl)amino]butyric acid] |
| ≤ 10 | ≤ 1000 | CCCc1cc(C(=O)N[C@H](Cc2ccccc2)[C@@H](O)C(=O)O)nn1Cc1ccc(-c2ccccc2S(=O)(=O)NC(=O)c2cc(C)on2)cc1 [Example 7-5, (2R,3R)-2-Hydroxy-3-[(1-{2′[(5-methylisoxazole-3-carbonyl)sulfamoyl]biphenyl-4-ylmethyl}-5-propyl-1H-pyrazole-3-carbonyl)amino]-4-phenylbutyric acid] |
| ≤ 10 | ≤ 1000 | CCCc1cc(C(=O)N[C@@H](CC(=O)O)Cc2ccccc2C)nn1Cc1ccc(-c2ccccc2S(=O)(=O)NC(C)=O)cc1 [Example 6-26, (R)-3-{[1-(2′-Acetylsulfamoylbiphenyl-4-ylmethyl)-5-propyl-1H-pyrazole-3-carbonyl]amino}-4-o-tolylbutyric acid] |
| ≤ 10 | ≤ 1000 | CCCc1cc(C(=O)N[C@H](Cc2ccccc2)[C@@H](O)C(=O)O)nn1Cc1ccc(-c2ccccc2S(=O)(=O)NC(=O)COC)cc1 [Example 7-8, (2R,3R)-2-Hydroxy-3-({1-[2′-(2-methoxyacetylsulfamoyl)biphenyl-4-ylmethyl]-5-propyl-1H-pyrazole-3-carbonyl}amino)-4-phenylbutyric acid] |
| ≤ 10 | ≤ 100 | CCCc1cc(C(=O)N[C@H](Cc2ccccc2Cl)[C@@H](O)C(=O)O)nn1Cc1ccc(-c2ccccc2S(=O)(=O)NC(C)=O)cc1 [Example 6-9, (2R,3R)-3-{[1-(2′-Acetylsulfamoylbiphenyl-4-ylmethyl)-5-propyl-1H-pyrazole-3-carbonyl]-amino}-4-(2-chlorophenyl)-2-hydroxy-butyric acid] |
| ≤ 10 | ≤ 100 | CCCc1cc(C(=O)N[C@H](Cc2ccccc2)[C@@H](O)C(=O)O)nn1Cc1ccc(-c2ccccc2S(=O)(=O)NC(C)=O)c(F)c1 [Example 6-7, (2R,3R)-3-{[1-(2′-Acetylsulfamoyl-2-fluorobiphenyl-4-ylmethyl)-5-propyl-1H-pyrazole-3-carbonyl]amino}-2-hydroxy-4-phenylbutyric acid] |
| ≤ 10 | ≤ 1000 | CCCc1cc(C(=O)N[C@H](Cc2ccccc2)[C@@H](O)C(=O)O)nn1Cc1ccc(-c2ccccc2S(=O)(=O)NC(=O)C(C)C)cc1 [Example 6-12, (2R,3R)-2-Hydroxy-3-{[1-(2′-isobutyrylsulfamoylbiphenyl-4-ylmethyl)-5-propyl-1H-pyrazole-3-carbonyl]amino}-4-phenylbutyric acid] |
| ≤ 10 | ≤ 100 | CCCc1cc(C(=O)N[C@H](Cc2ccccc2)[C@@H](O)C(=O)O)nn1Cc1ccc(-c2ccccc2S(=O)(=O)NC(=O)NC)cc1 [Example 7-11, (2R,3R)-2-hydroxy-3-(1-((2′-(N-(methylcarbamoyl)sulfamoyl)biphenyl-4-yl)methyl)-5-propyl-1H-pyrazole-3-carboxamido)-4-phenylbutanoic acid] |
| ≤ 100 | ≤ 100 | CCCc1cc(C(=O)N[C@H](Cc2ccccc2Cl)[C@@H](O)C(=O)O)nn1Cc1ccc(-c2ccccc2-n2nn[nH]c2=O)cc1 [Example 16-6, (2R,3R)-4-(2-Chlorophenyl)-2-hydroxy-3-({1-[2′-(5-oxo-4,5-dihydrotetrazol-1-yl)biphenyl-4-ylmethyl]-5-propyl-1H-pyrazole-3-carbonyl}amino)butyric acid] |
